pIC50, pKd: −log10 of the molar value.

The text below walks through data of ChEMBL document CHEMBL4431372, “Optimization of a Fragment-Based Screening Hit toward Potent DOT1L Inhibitors Interacting in an Induced Binding Pocket” (ACS Med Chem Lett, 2016).

The target of one experiment is T1, Histone-lysine N-methyltransferase, H3 lysine-79 specific (Homo sapiens, UniProt Q8TEK3). Kind of experiment: Inhibition of human DOTL1 (2 to 416 residues)-mediated methylation of nucleosome preincubated for 30 mins followed by addition of S-[methyl-3H-] adenosyl-L-methionine and nucleosome measured after 180 mins by scintillation proximity assay. (Scintillation proximity formats need no separation of bound from free tracer.)
T1 sequence (Q8TEK3 whole entry, the tested form may be a part): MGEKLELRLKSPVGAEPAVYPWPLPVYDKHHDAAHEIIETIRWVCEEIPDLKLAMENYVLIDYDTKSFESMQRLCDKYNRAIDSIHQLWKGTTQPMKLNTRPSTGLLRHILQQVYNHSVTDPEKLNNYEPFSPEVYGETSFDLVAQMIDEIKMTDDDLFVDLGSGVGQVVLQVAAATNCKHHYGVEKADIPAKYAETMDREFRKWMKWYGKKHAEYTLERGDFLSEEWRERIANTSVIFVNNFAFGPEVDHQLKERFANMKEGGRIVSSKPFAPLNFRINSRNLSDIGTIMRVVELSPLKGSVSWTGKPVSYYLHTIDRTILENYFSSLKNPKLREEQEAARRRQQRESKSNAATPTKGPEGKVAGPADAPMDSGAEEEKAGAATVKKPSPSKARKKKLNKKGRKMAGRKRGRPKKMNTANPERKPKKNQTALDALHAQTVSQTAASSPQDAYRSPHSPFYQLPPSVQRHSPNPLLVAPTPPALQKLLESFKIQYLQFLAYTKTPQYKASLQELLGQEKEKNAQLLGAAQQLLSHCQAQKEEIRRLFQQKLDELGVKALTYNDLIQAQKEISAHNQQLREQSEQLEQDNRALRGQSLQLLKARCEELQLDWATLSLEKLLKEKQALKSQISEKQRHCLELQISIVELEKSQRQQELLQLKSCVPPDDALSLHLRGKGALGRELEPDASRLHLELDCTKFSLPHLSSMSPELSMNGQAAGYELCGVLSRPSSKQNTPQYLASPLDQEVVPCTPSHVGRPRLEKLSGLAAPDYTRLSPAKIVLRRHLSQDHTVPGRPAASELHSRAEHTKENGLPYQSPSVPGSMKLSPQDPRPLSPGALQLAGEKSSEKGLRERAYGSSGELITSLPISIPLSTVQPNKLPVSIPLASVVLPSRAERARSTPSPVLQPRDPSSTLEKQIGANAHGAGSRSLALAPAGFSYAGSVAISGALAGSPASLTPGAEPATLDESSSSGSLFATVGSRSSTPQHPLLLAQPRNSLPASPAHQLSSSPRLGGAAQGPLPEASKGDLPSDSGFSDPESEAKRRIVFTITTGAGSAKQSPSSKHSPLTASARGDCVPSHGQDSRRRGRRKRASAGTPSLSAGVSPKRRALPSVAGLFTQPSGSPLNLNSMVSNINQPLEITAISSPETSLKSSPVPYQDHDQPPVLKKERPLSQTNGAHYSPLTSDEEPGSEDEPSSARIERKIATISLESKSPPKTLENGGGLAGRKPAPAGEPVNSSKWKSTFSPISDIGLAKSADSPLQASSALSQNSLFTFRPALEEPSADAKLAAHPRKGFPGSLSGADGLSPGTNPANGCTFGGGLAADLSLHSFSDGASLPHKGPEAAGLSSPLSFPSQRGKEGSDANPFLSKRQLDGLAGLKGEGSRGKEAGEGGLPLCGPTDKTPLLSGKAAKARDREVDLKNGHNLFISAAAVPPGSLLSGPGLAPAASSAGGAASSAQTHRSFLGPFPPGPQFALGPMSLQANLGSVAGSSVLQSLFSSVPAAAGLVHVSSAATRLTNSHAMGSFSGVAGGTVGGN
Usually pIC50 stands for −log10 of the IC50, conventionally taken in molar units. The low end stands for a large IC50, the high end for a small IC50. The molecule `O=C(c1ccc2ncccc2c1)c1c(Cl)cccc1Cl` had a pIC50 of 3.86.

The molecule `Cc1ccc(C#CCN(c2ccc3ncnc(N)c3c2)c2c(Cl)cccc2Cl)nc1` showed a pIC50 of 7.33.

The molecule `Nc1ncnc2ccc(N(CC#CC(O)c3nccn3CCO)c3c(Cl)cccc3Cl)cc12` (stereo unspecified) gave a pIC50 of 7.85.

`Cc1ncc(C#CCN(c2ccc3ncn(C)c(=O)c3c2)c2c(Cl)cccc2Cl)cn1` gave a pIC50 of 7.05.

`CNC(=O)c1cc(C(=O)c2c(Cl)cccc2Cl)c[nH]1` showed a pIC50 of 3.49.

Regarding `CC(=O)Nc1cncc(-c2cc(C(=O)c3c(Cl)cccc3Cl)c[nH]2)c1`, the pIC50 is 5.37. This pIC50 is 1.88 log units higher than that of the molecule before.

`CN(c1ccc2ncccc2c1)c1c(Cl)cccc1Cl` had a negative-log IC50 (pIC50) of 4.01.

`COc1ccnc2ccc(N(C)c3c(Cl)cccc3Cl)cc12` showed a pIC50 of 4.41.

For the molecule `C#CCN(c1ccc2ncnc(N)c2c1)c1c(Cl)cccc1Cl`, the pIC50 was 6.04. This pIC50 is 1.63 log units higher than that of the molecule before.

`Cn1cnc2ccc(N(CC#Cc3cccnc3)c3c(Cl)cccc3Cl)cc2c1=O` showed a pIC50 of 6.08.

The target in another experiment is T1, Histone-lysine N-methyltransferase, H3 lysine-79 specific. Put plainly: Binding affinity to biotinylated Avi tagged human DoT1L (2 to 416 residues) by SPR analysis. On the technique in general: In SPR one partner is held on a chip, and binding of the other changes the refractive index at the surface.
What is called pKd is the negative decadic logarithm of the Kd, by convention in mol/L. `CNC(=O)c1cc(C(=O)c2c(Cl)cccc2Cl)c[nH]1` had a pKd of 4.30.
